Where two headings read alike, the source gives them in different places.
Columns and labels:
CT26 colon-cancer cells = test: Subcutaneous CT26 colon-cancer tumors in Balb/c mice; type: in vivo; settings: compound 5 10 mg/kg, DZNEP 1 mg/kg, FIG. 2A
Description: A. Tumor progression in Balb/c mice subcutaneously injected with CT26 cells (0.5×10^6). After 3 days, treatment with compound 5 (10 mg/kg) or DMSO was given by intraperitoneal injection every other day starting 3 days after the first injection. Two groups of mice (with either DMSO or compound 5 treatment) were treated with anti-PD1 antibody injected subcutaneously every other day. Number of mice for each treatment group=10.
(§1) 0.5×10^6 cells in 100 μL PBS were subcutaneously injected into 4-week-old female C57Bl/6 mice (for the B16 experiment) or Balb/c mice (for the CT26 experiments). DZNEP is an inhibitor of the catalytic activity of EZH2 and was used as an additional control.
1 mg/kg DZNEP and 10 mg/kg compound 5 were used for the subsequent experiments. Tridimensional measurements were performed daily, and the tumor volume was expressed as mm^3. […] The T-cells were stained with CD8, perforin, and granzyme B antibodies and analyzed immediately by flow cytometry using a MACS-Quant Analyzer (Miltenyi Biotec, Paris, France).
Tumors were extracted and disaggregated using […] strainers. […] FoxP3 was detected by cell intranuclear staining employing the BD Pharmingen™ Mouse Foxp3 Buffer Set according to the manufacturer's instructions. IFN-γ, perforin, and granzyme B were detected by intracellular staining using the BD Cytofix/Cytoperm™ Kit following the manufacturer's instructions. […]

CT26 cells = test: Spleen CD3+ T-cells of treated mice cocultured with naïve CT26 cells; type: in vivo; settings: coculture 24 or 48 h
Description: 1 mg/kg DZNEP and 10 mg/kg compound 5 were used for the subsequent experiments. Tridimensional measurements were performed daily, and the tumor volume was expressed as mm^3. […] Freshly collected tumors were dissociated and stained for immune-cell infiltrate using a flow cytometer. CD3+ T cells from spleen tissue were negatively selected using myltennyi magnetic columns and put in contact with naïve CT26 cells for 24 or 48 h. The CT26 cells were subsequently stained with DAPI (0.5 μg/ml, Molecular Probes, Grand Island, N.Y., USA). The T-cells were stained with CD8, perforin, and granzyme B antibodies and analyzed immediately by flow cytometry using a MACS-Quant Analyzer (Miltenyi Biotec, Paris, France).
Spleens were extracted and disaggregated, and the cells were resuspended in PBS. T-cells were isolated by CD3 negative selection to avoid activation. […] The flow-through containing the enriched fraction of CD3 cells was collected and analyzed by flow cytometry to determine the yield of the enrichment (CD3 cells constituted a minimum 70% of the total cells collected).

EZH2 transcription = test: Ability to decrease EZH2 mRNA level in A375 (dose-response, quantitative PCR); type: cell-based; settings: Homo sapiens, A-375, 96 h; A375 cells, incubated 4 days; read-out: IC50 (concentration necessary to obtain 50% of EZH2 transcription activity)
Description: Typically, 30000-50000 cells were plated in six-well culture plates and incubated 24 h later with increasing concentration of NIK inhibitors or vehicle. Cells were incubated with the inhibitors for 4 days prior to harvesting for RNA extraction and PCR. Total RNA was isolated from cells using the RNAeasy minikit (Qiagen) according to the manufacturer's procedure. Reverse transcription was performed using the AMV reverse transcription system (Promega), and quantitative PCR was performed with Power Sybr green (Applied Biosystems, Life Technologies, Grand Island, N.Y.) following the manufacturer's instructions. The PCR was carried out on a Step One plus Real-Time PCR system (Applied Biosystems). All analyses were done in triplicate, and a melting curve analysis was performed to control for product quality and specificity. Expression levels were calculated using the comparative method of relative quantification, with SB34 as a normalizer. The data were analyzed for statistical significance using Student's t-test. The results are presented as the mean±SEM relative to the control. Primers were obtained from primer bank or primer depot (http://pga.mgh.harvard.edu/primerbank/, https://primerdepot.nci.nih.gov), and their specificity was verified using primer blast (http://www.ncbi.nlm.nih.gov/tools/primer-blast/).
Here IC50 represents the concentration necessary to obtain 50% of EZH2 transcription activity.

A375 cells = test: A375 cell proliferation assay (trypan blue exclusion); type: cell-based; settings: Homo sapiens, A-375, treated/untreated cell number; for activity at 1 µM: A375, 1 μM; for activity at 10 µM: A375, 10 μM
Description: Cells were counted using a Malassez chamber. The average and standard deviation were calculated from triplicate experiments. Antiproliferative effects were evaluated by trypan blue exclusion assay. Briefly, cells were seeded into 12-well plate and grown in media supplemented with indicated compound at 1 or 10 μM for 48 h or 96 h. Cells were washed with PBS and detached by trypsinization, collected and colored by trypan blue. Dead and living cells were counted and proliferation was calculated as follow: Proliferation (%)=[(treated cell number/untreated cells number)*100].

normal human fibroblast = test: Fibroblast viability assay (trypan blue exclusion); type: cell-based; settings: 96 h
Description: (§2) Cell viability effects were evaluated by trypan blue exclusion assay. Briefly, cells were seeded into 12-well plate and grown in media supplemented with indicated compound at 10 μM for 96 h. Cells were washed with PBS and detached by trypsinization, collected and colored by trypan blue. Dead and living cells were counted and cell viability was calculated as follow: Viability (%)=100−[(dead cell number/total cells)*100].

normal human melanocyte = test: Melanocyte viability assay (trypan blue exclusion); type: cell-based; settings: 96 h
Description: as §2

[1] = test system: normal human melanocytes or fibroblasts; test: Proliferation of normal human melanocytes or fibroblasts; type: cell-based
B16 melanoma cells = test: Established subcutaneous B16 melanoma in C57Bl6 mice; type: in vivo
Description: FIG. 3. Compound 5 treatment is effective when used alone in reducing tumor growth in vivo and potentiates the anti-PD1 immune response in C57Bl6 mice subcutaneously injected with B16 melanoma cells. B16 cells were injected subcutaneously and the tumors were let to grow until an average volume of 100 mm^3 was reached. The mice were then sorted into four groups with similar average tumor volume and standard deviation. Treatment with compound 5 (10 mg/kg) or control (DMSO) was given by intraperitoneal injection every day. Anti-PD1 antibodies (125 μg/mouse) was given every other day alone or combined with daily injection of compound 5. Number of mice for each treatment group=8.
as §1
The inventors then asked whether compound 5 was able to increase the survival rate of mice with already established tumor and, if that was the case, also in this situation was able to synergize with anti-PD1 treatment. They thus decided to use the model B16 melanoma cells in C57Bl6 mice. B16 cells were again injected subcutaneously and the tumors were let to grow until an average volume of 100 mm3 was reached. […]

[2] = Tolerability in treated CT26 tumor-bearing mice; type: in vivo; settings: 10 mg/kg intraperitoneal
Description: In order to evaluate the new approach in different types of cancer, compound 5 was tested in colorectal cancer cells. CT26 cells were subcutaneously injected into syngeneic mice. After 3 days, the mice were treated intraperitoneally with DZNEP, compound 5, and anti-PD1 as monotherapies and combined. Additional treatments in which the mice received DZNEP or compound 5 plus anti-PD1 with an anti-CD8 antibody added to neutralize the T-cell response were included. […] Signs of tumor regression and tumor-free mice were even observed. […] The number of M1 macrophages and the percentage of M1 macrophages among the total macrophage population were increased in all the treated mice, especially in the mice that received the combination treatments (FIG. 2C). Each of the treatments increased the numbers and activation of DCs and the numbers of CD8+ and CD4+ cells infiltrating the tumors (FIG. 2D). […] Finally, CD3+ T-cells were isolated by negative selection from the spleens of the treated mice and cocultured with naïve CT26 cells.

Compound | growth of the CT26 tumors (CT26 colon-cancer cells) | killing of naïve CT26 cells by T-cells isolated from treated mice (CT26 cells) | IC50 (EZH2 transcription) [µM] | activity at 1 µM (A375 cells; 48 h, read-out: Proliferation (%) At 1 μM - 48 H) [%] | activity at 1 µM (A375 cells; 96 h, read-out: Proliferation (%) At 1 μM - 96 H) [%] | activity at 10 µM (A375 cells; 48 h, read-out: Proliferation (%) At 10 μM - 48 H) [%] | activity at 10 µM (A375 cells; 96 h, read-out: Proliferation (%) At 10 μM - 96 H) [%] | Viability (%) at 10 μM Fibroblast (normal human fibroblast) [%] | Viability (%) at 10 μM Melanocyte (normal human melanocyte) [%] | proliferation of normal human melanocytes or fibroblasts [1] | death dependent from treatment (B16 melanoma cells; B16 experiment) | median survival (B16 melanoma cells; days from injection, treatment started at tumor volume 100 mm3, control 13 days) [days] | clinical signs of toxicity [2] | liver enzymes in the blood [2] | liver weight and systemic glycemia compared to the other mice [2]
Nc1nccc2c1ncn2C1C=C(CO)C(O)C1O (stereo not drawn) [DZNEP] | significantly reduced | more effective in killing CT26 cells | – | – | – | – | – | – | – | – | – | – | – | – | –
COc1ccc(Nc2ccnc3cc(Cl)ccc23)cc1 [Compound 5, 4-((4-methoxyphenyl)amino)-7-chloroquinolinium chloride] | – | – | 5 | 91 | 77.1 | 67.5 | 58.1 | 98.6 | 99.5 | Neither treatment had any effect | no death dependent from compound 5 treatment was observed | 20 | no clinical signs of toxicity | remained in the normal range | similar

— US20200181089A1, “4-ANILINO-QUINOLINE COMPOUNDS AS ANTI-CANCER AGENTS” (INSERM (INSTITUT NATIONAL DE LA SANTÉ ET DE LA RECHERCHE …, priority 2016, published 2020)
